Data from the NIST ThermoML archive (doi:10.1021/acs.jced.6b00542).
Numbers after ± are expanded uncertainties.

Assay: xn = mol fraction of the nth substance listed
Conditions: for surface tension liquid-gas: 294.5 K, Pendant drop shape; for speed of sound: 100 kPa, Frequency=3 MHz, Sing-around technique in a fixed-path interferometer; for speed of sound / viscosity / mass density: Liquid; for viscosity / mass density: 102 kPa; for viscosity: Concentric cylinders viscometry; for mass density: Vibrating tube method

CCCCCCCCCCCCCCCCC [heptadecane] + CCCCc1ccccc1
Conditions	surface tension liquid-gas [mN/m]
x2 = 0.1662	27.6 ± 0.4
x2 = 0.3047	27.7 ± 0.4
x2 = 0.4587	28 ± 0.4
x2 = 0.6419	28.2 ± 0.4
x2 = 0.7515	28.3 ± 0.4
x2 = 0.8742	29.2 ± 0.4

Conditions	mass density [kg/m3]	speed of sound [m/s]	viscosity [mPa·s]
303.15 K, x2 = 0	771.02 ± 0.13	1330.9 ± 1.2	3.25 ± 0.02
303.15 K, x2 = 0.1662	777.94 ± 0.13	1325.3 ± 0.9	2.73 ± 0.01
303.15 K, x2 = 0.3047	784.91 ± 0.13	1321.4 ± 1	2.35 ± 0.01
303.15 K, x2 = 0.4587	794.08 ± 0.13	1316.9 ± 0.9	1.96 ± 0.01
303.15 K, x2 = 0.6419	808.08 ± 0.12	1312.4 ± 0.9	1.56 ± 0.01
303.15 K, x2 = 0.7515	818.66 ± 0.12	1311.3 ± 1	1.35 ± 0.01
303.15 K, x2 = 0.8742	833.23 ± 0.12	1311 ± 0.9	1.13 ± 0.01
313.15 K, x2 = 0	764.16 ± 0.13	1294.5 ± 1.1	2.61 ± 0.01
313.15 K, x2 = 0.1662	771 ± 0.13	1289 ± 0.9	2.23 ± 0.01
313.15 K, x2 = 0.3047	777.87 ± 0.13	1285 ± 0.9	1.94 ± 0.01
313.15 K, x2 = 0.4587	786.92 ± 0.13	1280.3 ± 0.9	1.64 ± 0.01
313.15 K, x2 = 0.6419	800.73 ± 0.12	1275.9 ± 0.9	1.32 ± 0.01
313.15 K, x2 = 0.7515	811.14 ± 0.12	1274.1 ± 0.9	1.15 ± 0.01
313.15 K, x2 = 0.8742	825.49 ± 0.12	1273.6 ± 0.9	0.967 ± 0.007
323.15 K, x2 = 0	757.3 ± 0.14	1258.8 ± 0.9	2.14 ± 0.01
323.15 K, x2 = 0.1662	764.03 ± 0.13	1253.3 ± 0.8	1.85 ± 0.01
323.15 K, x2 = 0.3047	770.84 ± 0.13	1249.2 ± 0.8	1.62 ± 0.01
323.15 K, x2 = 0.4587	779.75 ± 0.13	1244.5 ± 0.8	1.39 ± 0.01
323.15 K, x2 = 0.6419	793.34 ± 0.13	1239.7 ± 0.8	1.14 ± 0.01
323.15 K, x2 = 0.7515	803.6 ± 0.12	1237.6 ± 0.8	1 ± 0.01
323.15 K, x2 = 0.8742	817.71 ± 0.12	1236.6 ± 0.8	0.844 ± 0.007
333.15 K, x2 = 0	750.45 ± 0.14	1223.8 ± 0.8	1.79 ± 0.01
333.15 K, x2 = 0.1662	757.11 ± 0.14	1218.1 ± 0.8	1.56 ± 0.01
333.15 K, x2 = 0.3047	763.79 ± 0.13	1214 ± 0.8	1.38 ± 0.01
333.15 K, x2 = 0.4587	772.56 ± 0.13	1209.1 ± 0.8	1.2 ± 0.01
333.15 K, x2 = 0.6419	785.94 ± 0.13	1204 ± 0.8	0.981 ± 0.007
333.15 K, x2 = 0.7515	796.02 ± 0.13	1201.6 ± 0.8	0.865 ± 0.007
333.15 K, x2 = 0.8742	809.9 ± 0.12	1200.1 ± 0.8	0.747 ± 0.006
343.15 K, x2 = 0	743.7 ± 0.23	–	1.52 ± 0.01
343.15 K, x2 = 0.1662	750.12 ± 0.23	–	1.33 ± 0.01
343.15 K, x2 = 0.3047	756.65 ± 0.23	–	1.19 ± 0.01
343.15 K, x2 = 0.4587	765.4 ± 0.23	–	1.04 ± 0.01
343.15 K, x2 = 0.6419	778.47 ± 0.23	–	0.861 ± 0.007
343.15 K, x2 = 0.7515	788.4 ± 0.23	–	0.768 ± 0.006
343.15 K, x2 = 0.8742	802 ± 0.23	–	0.671 ± 0.006
353.15 K, x2 = 0	736.8 ± 0.2	–	1.3 ± 0.01
353.15 K, x2 = 0.1662	743.1 ± 0.2	–	1.16 ± 0.01
353.15 K, x2 = 0.3047	749.6 ± 0.2	–	1.04 ± 0.01
353.15 K, x2 = 0.4587	758.1 ± 0.2	–	0.906 ± 0.007
353.15 K, x2 = 0.6419	771 ± 0.2	–	0.763 ± 0.006
353.15 K, x2 = 0.7515	780.7 ± 0.2	–	0.684 ± 0.006
353.15 K, x2 = 0.8742	794.1 ± 0.2	–	0.602 ± 0.006
363.15 K, x2 = 0	729.8 ± 0.2	–	1.14 ± 0.01
363.15 K, x2 = 0.1662	736.1 ± 0.2	–	1.01 ± 0.01
363.15 K, x2 = 0.3047	742.4 ± 0.2	–	0.909 ± 0.007
363.15 K, x2 = 0.4587	750.8 ± 0.2	–	0.805 ± 0.006
363.15 K, x2 = 0.6419	763.4 ± 0.2	–	0.687 ± 0.006
363.15 K, x2 = 0.7515	773 ± 0.2	–	0.623 ± 0.006
363.15 K, x2 = 0.8742	786.1 ± 0.2	–	0.546 ± 0.006
373.15 K, x2 = 0	723 ± 0.2	–	1 ± 0.01
373.15 K, x2 = 0.1662	729 ± 0.2	–	0.891 ± 0.007
373.15 K, x2 = 0.3047	735.2 ± 0.2	–	0.811 ± 0.006
373.15 K, x2 = 0.4587	743.5 ± 0.2	–	0.725 ± 0.006
373.15 K, x2 = 0.6419	755.8 ± 0.2	–	0.628 ± 0.006
373.15 K, x2 = 0.7515	765.2 ± 0.2	–	0.567 ± 0.006
373.15 K, x2 = 0.8742	778.1 ± 0.2	–	0.499 ± 0.005
